Reference: US20020025940A1, “Methods and compositions for sensitive and rapid, functional identification of genomic polynucleotides and use for cellular assays in drug discovery” (Aurora Biosciences Corporation, priority 1997, published 2002)

Legend:
Assay type in all cases: cell-based, human
[1] = system: BLEC Jurkat clones; assay: Specificity of activated BLEC Jurkat clones, relative beta-lactamase activity; conditions: PMA 8 nM, Thaps 1 microM, CsA 100 nM, PHA 10 microgram/ml
Source text: (§1) Isolated clones from PHA-induced (Example 6) and PHA-repressed (Example 7) procedures described above were characterized to determine the specificity of their modulation and time required for induction or repression. Clones were stimulated with multiple activators or inhibitors over a one to twenty-four hour time interval.
(§2) In this study, PMA, which is a PKC activator, Thapsigargin which increases intracellular calcium, PHA which activates the T-cell receptor pathway, and cyclosporin A which is a clinically approved immunosuppressant that inhibits the Ca^2+ dependent phosphates calcineurin were investigated for their ability to modulate beta-lactamase expression in PHA induced and repressed BLEC clones.

[2] = system: repressed BLEC Jurkat clones; assay: Characterization of repressed BLEC Jurkat clones, relative repression of beta-lactamase; conditions: PHA 10 microgram/ml, CsA 100 nM, PMA 8 nM, Thaps 1 microM
Source text: These clones represent cells in which the BLEC trapping construct had integrated into a gene down regulated by PHA (T-cell) activation. Thus, these cells report the transcriptional repression of a gene upon cellular activation. Individual clones were identified and isolated by FACS using CCF2/AM to detect beta-lactamase activity using the following repressed sorting paradigm.
A first sort was used to isolate a population of cells that constitutively express beta-lactamase by identifying and isolating a population of blue cells from an unstimulated population of BLEC transfected Jurkat cells contacted with CCF2/AM. The sorted population of cells represented 2.89% of the unsorted population. These cells were cultured, divided into two pools, and stimulated with one of two different stimuli, either 10 micrograms/ml PHA for 18 hours, or 8 nM PMA and 1 microM Thapsigargin for 18 hours. These stimulated cells were contacted with CCF2 (loading in the presence of 400 PET (4% weight/volume) and Pluoronic 128 (100 micrograms/ml)) and the green cells in the population were sorted using FACS. The sorted population represented 8.41% of the cell population prior to the second sort. The third round of FACS was for single blue unstimulated cells. The population of cells obtained represented 18.2% of the cell population prior to the third sort.
This sorting procedure represents a 2,260-fold enrichment for PHA repressible clones. These clones have the beta-lactamase gene integrated into a gene that is down regulated by PHA stimulation of the cells. Six of 80 individual clones tested were repressed by PHA or PMA+Thapsigargin. All of these clones were confirmed to be independent integration events by genomic Southern analysis using a DNA probe encoding beta-lactamase.
(§3) Table 7 and Table 8 provide data similar to that provided in Table 5 for all of the clones obtained by the methods of Examples 5 to 7.

[3] = system: induced BLEC Jurkat clones; assay: Characterization of induced BLEC Jurkat clones, change in 460/530 ratio; conditions: PHA 10 microgram/ml, Thaps 1 microM, PMA 8 nM, Anti-CD3 2 microgram/ml
Source text: These clones represent cells in which the trapping construct had integrated into a gene up regulated by PHA (T-cell) activation. Thus, these cells report the transcriptional activation of a gene upon cellular activation. Individual clones were identified and isolated by FACS using CCF2/AM to detect beta-lactamase activity. This clone isolation method, the induced sorting paradigm, used three sequential and independent stimulation and sorting protocols. […] These control cells were all green.
These isolated clones were expanded and tested for PHA inducibility by microscopic inspection with and without PHA stimulation in the presence of CCF2/AM. A total of fifty-five PHA inducible clones were identified using this procedure. The PHA inducibility for these clones ranged from a 1.5 to 40 fold change in the 460/530 ratio as compared to unstimulated control cells. Genomic Southern analysis using a DNA probe encoding beta-lactamase established that these clones represented 34 independent stable vector integration events. A list of clones obtained by the methods of the present invention and their characteristics is provided below in Table 6 and Table 7.
In addition to PHA inducible clones, Phobol 12-myristate 13-acetate (PMA) (Calbiochem), Thapsigargin (Thaps) (Calbiochem), and PMA+Thaps inducible clones were isolated using the general procedure set forth above using the indicated inducer rather than PHA. PMA is a specific activator of PKC (protein kinase C) and Thaps is a specific activator of intracellular calcium ion release (Thaps). These clones were isolated using three rounds of FACS using the general procedures described for the PHA inducible clones in Example 5. In such instances, other stimulants were substituted for PHA. PMA was provided at 8 nM, Thaps was provided at 1 microM. When these two stimulants were combined, their concentration was not changed. […] By using varied selection conditions, it is possible to isolate functionally distinct clones downstream of the desired signaling target.
as §3

[4] = system: clone C2 (3×NFAT response element linked to beta-lactamase, M1 muscurinic receptor); assay: Relative beta-lactamase activity of control clone C2; conditions: PMA 8 nM, Thaps 1 microM, CsA 100 nM, PHA 10 microgram/ml
Source text: as §1, §2

phytohemaglutinin [PHA]
Relative Beta-Lactamase Activity of the Clone by the Indicated Stimulus After 24 hours (% of maximum activated stimuli) ([1]; clone J32-6D4): 80% | Relative Beta-Lactamase Activity of the Clone by the Indicated Stimulus After 24 hours (% of maximum activated stimuli) ([1]; clone J83 97-PPTR2 (repressed paradigm)): 67% | Relative Beta-Lactamase Activity of the Clone by the Indicated Stimulus After 24 hours (% of maximum activated stimuli) ([1]; clone J83-PI9): 60% | Relative Beta-Lactamase Activity of the Clone by the Indicated Stimulus After 24 hours (% of maximum activated stimuli) ([1]; clone J83-PTI8): 60% | Relative Beta-Lactamase Activity of the Clone by the Indicated Stimulus After 24 hours (% of maximum activated stimuli) ([1]; clone J389-PTI4): 85% | Relative repression of beta-lactamase in the indicated clone by the following activator ([2]; clone 183/97pptr2): 10 | Relative repression of beta-lactamase in the indicated clone by the following activator ([2]; clone J83/97pptr1): 90 | Relative repression of beta-lactamase in the indicated clone by the following activator ([2]; clone J83/97pptr3): 10 | Relative repression of beta-lactamase in the indicated clone by the following activator ([2]; clone J83/97pptr4): 60 | Relative repression of beta-lactamase in the indicated clone by the following activator ([2]; clone J83/97pptr5): 50 | Relative repression of beta-lactamase in the indicated clone by the following activator ([2]; clone J83/97pptr6): 70 | Change in 460/530 ratio in the indicated clone by the following activator ([3]; clone J83PI1): 3-4 | Change in 460/530 ratio in the indicated clone by the following activator ([3]; clone J83PI2): 8 | Change in 460/530 ratio in the indicated clone by the following activator ([3]; clone J83PI3): 5-6 | Change in 460/530 ratio in the indicated clone by the following activator ([3]; clone J83PI4): 34 | Change in 460/530 ratio in the indicated clone by the following activator ([3]; clone J83PI6): 6-7 | Change in 460/530 ratio in the indicated clone by the following activator ([3]; clone J83PI7): 2 | Change in 460/530 ratio in the indicated clone by the following activator ([3]; clone J83PI8): 4-5 | Change in 460/530 ratio in the indicated clone by the following activator ([3]; clone J83PI9): 6 | Change in 460/530 ratio in the indicated clone by the following activator ([3]; clone J83PI13): 2-3 | Change in 460/530 ratio in the indicated clone by the following activator ([3]; clone J83PI14): 2 | Change in 460/530 ratio in the indicated clone by the following activator ([3]; clone J83PI15): 3-4 | Change in 460/530 ratio in the indicated clone by the following activator ([3]; clone J83PI16): 3-4 | Change in 460/530 ratio in the indicated clone by the following activator ([3]; clone J83PI18): 5-6 | Change in 460/530 ratio in the indicated clone by the following activator ([3]; clone J83PI19): 5-6 | Change in 460/530 ratio in the indicated clone by the following activator ([3]; clone J97PI1): 3-4 | Change in 460/530 ratio in the indicated clone by the following activator ([3]; clone J97PI2): 2-3 | Change in 460/530 ratio in the indicated clone by the following activator ([3]; clone J97PI3): 1-2 | Change in 460/530 ratio in the indicated clone by the following activator ([3]; clone J97PI4): 1-2 | Change in 460/530 ratio in the indicated clone by the following activator ([3]; clone J97PI6): 3-4 | Change in 460/530 ratio in the indicated clone by the following activator ([3]; clone J97PI7): 3-4 | Change in 460/530 ratio in the indicated clone by the following activator ([3]; clone J97PI8): 2.5-3 | Change in 460/530 ratio in the indicated clone by the following activator ([3]; clone J97PI9): 2-3 | Change in 460/530 ratio in the indicated clone by the following activator ([3]; clone J97PI10): 3-4 | Change in 460/530 ratio in the indicated clone by the following activator ([3]; clone J97PI11): 3-4 | Change in 460/530 ratio in the indicated clone by the following activator ([3]; clone J97PI12): 3-4 | Change in 460/530 ratio in the indicated clone by the following activator ([3]; clone J97PI13): 2-3 | Change in 460/530 ratio in the indicated clone by the following activator ([3]; clone J97PI14): 4-5 | Change in 460/530 ratio in the indicated clone by the following activator ([3]; clone J97PI15): 1-2 | Change in 460/530 ratio in the indicated clone by the following activator ([3]; clone J97PI17): 4-5 | Change in 460/530 ratio in the indicated clone by the following activator ([3]; clone J97PI18): 1-2 | Change in 460/530 ratio in the indicated clone by the following activator ([3]; clone J97PI19): 2-3 | Change in 460/530 ratio in the indicated clone by the following activator ([3]; clone J97PI20): 1-2 | Change in 460/530 ratio in the indicated clone by the following activator ([3]; clone J97PI21): 2-3 | Change in 460/530 ratio in the indicated clone by the following activator ([3]; clone J97PI22): 5-6 | Change in 460/530 ratio in the indicated clone by the following activator ([3]; clone J97PI23): 4-5 | Change in 460/530 ratio in the indicated clone by the following activator ([3]; clone J97PI24): 3-4 | Change in 460/530 ratio in the indicated clone by the following activator ([3]; clone J97PI116): 2-3 | Change in 460/530 ratio in the indicated clone by the following activator ([3]; clone J325B5): 7 | Change in 460/530 ratio in the indicated clone by the following activator ([3]; clone J325B11): 9 | Change in 460/530 ratio in the indicated clone by the following activator ([3]; clone J325E1): 8 | Change in 460/530 ratio in the indicated clone by the following activator ([3]; clone J325E3): 7 | Change in 460/530 ratio in the indicated clone by the following activator ([3]; clone J325E6): 11 | Change in 460/530 ratio in the indicated clone by the following activator ([3]; clone J325G4): 3-4 | Change in 460/530 ratio in the indicated clone by the following activator ([3]; clone J326C9): 4-5 | Change in 460/530 ratio in the indicated clone by the following activator ([3]; clone J326D4): 10 | Change in 460/530 ratio in the indicated clone by the following activator ([3]; clone J326D7): 10 | Change in 460/530 ratio in the indicated clone by the following activator ([3]; clone J326F7): 10 | Change in 460/530 ratio in the indicated clone by the following activator ([3]; clone J326H4): 10 | Change in 460/530 ratio in the indicated clone by the following activator ([3]; clone J389PM2): 4-5 | Change in 460/530 ratio in the indicated clone by the following activator ([3]; clone J389PM3): 3 | Change in 460/530 ratio in the indicated clone by the following activator ([3]; clone J389PM5): 4-5 | Change in 460/530 ratio in the indicated clone by the following activator ([3]; clone J389PM7): 1-2 | Change in 460/530 ratio in the indicated clone by the following activator ([3]; clone J389PM8): 2-3 | Change in 460/530 ratio in the indicated clone by the following activator ([3]; clone J389PT4): 15 | Change in 460/530 ratio in the indicated clone by the following activator ([3]; clone J389PTt): 5-6 | Change in 460/530 ratio in the indicated clone by the following activator ([3]; clone J389TI1): 1-2 | Change in 460/530 ratio in the indicated clone by the following activator ([3]; clone J389TI4): 0 | Relative Beta-Lactamase Activity of the Clone by the Indicated Stimulus After 24 hours (% of maximum activated stimuli) [4]: 30%
